According to US20250275959A1, “COMPOUNDS AND METHODS OF THEIR USE” (LEXICON PHARMACEUTICALS, INC., priority 2024, published 2025):

Tests used:
hACSL5 [1] = target: T1, hACSL5 (Homo sapiens (Human), UniProt Q9ULC5); test: Human ACSL5 coupled enzyme Amplex Red assay; type: biochemical; conditions: read-out: hACSL5 IC50
How it was run: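 C-terminally His-tagged ACSL5 (33-683) from sf9 cells, 20 nM, was preincubated with compound in MOPS-NaOH pH 7.6 with MgCl2, peroxidase and acyl-CoA oxidase. Reactions were started with 25 μM oleate, 30 μM CoA, 1 mM ATP and 50 μM Amplex Red; fluorescence (535/590 nm) after 10 minutes at 25° C. was fitted to the Hill equation for IC50 and maximal inhibition.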
Target sequence in this assay (Q9ULC5 33-683): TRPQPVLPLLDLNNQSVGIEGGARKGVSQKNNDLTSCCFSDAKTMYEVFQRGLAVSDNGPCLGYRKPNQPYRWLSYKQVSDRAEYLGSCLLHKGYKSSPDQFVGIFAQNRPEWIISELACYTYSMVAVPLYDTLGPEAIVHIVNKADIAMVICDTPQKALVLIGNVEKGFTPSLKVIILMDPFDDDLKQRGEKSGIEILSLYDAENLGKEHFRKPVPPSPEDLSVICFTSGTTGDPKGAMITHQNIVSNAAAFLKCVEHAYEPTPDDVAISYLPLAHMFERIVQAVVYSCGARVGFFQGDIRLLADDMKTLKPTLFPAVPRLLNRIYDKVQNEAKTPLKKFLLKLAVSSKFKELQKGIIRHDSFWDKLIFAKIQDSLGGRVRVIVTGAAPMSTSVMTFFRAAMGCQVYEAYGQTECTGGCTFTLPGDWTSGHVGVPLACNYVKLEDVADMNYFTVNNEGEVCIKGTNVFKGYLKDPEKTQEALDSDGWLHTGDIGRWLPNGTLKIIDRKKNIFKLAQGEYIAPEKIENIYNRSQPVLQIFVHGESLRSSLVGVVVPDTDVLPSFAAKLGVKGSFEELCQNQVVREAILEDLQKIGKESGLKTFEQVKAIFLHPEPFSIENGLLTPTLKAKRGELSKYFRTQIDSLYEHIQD

hACSL5 [2] = target: T1, hACSL5; test: Cell-based assay (CBA) with B12FA in hACSL5-transfected Expi293F / FlpIn TRex293 cells; conditions: hACSL5-expressing cells
How it was run: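 hACSL5-expressing Expi293F or tetracycline-induced FlpIn TRex293 cells, serum- and glucose-starved 1 h, then treated 3 h with serially diluted compound plus 20 µM B12FA. After fixation, 630/520 nm emission ratio (ex 485 nm) gave % inhibition versus no-inhibitor and 10 µM compound/non-induced controls; IC50 by Hill fit.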
Target sequence in this assay (Q9ULC5 whole entry): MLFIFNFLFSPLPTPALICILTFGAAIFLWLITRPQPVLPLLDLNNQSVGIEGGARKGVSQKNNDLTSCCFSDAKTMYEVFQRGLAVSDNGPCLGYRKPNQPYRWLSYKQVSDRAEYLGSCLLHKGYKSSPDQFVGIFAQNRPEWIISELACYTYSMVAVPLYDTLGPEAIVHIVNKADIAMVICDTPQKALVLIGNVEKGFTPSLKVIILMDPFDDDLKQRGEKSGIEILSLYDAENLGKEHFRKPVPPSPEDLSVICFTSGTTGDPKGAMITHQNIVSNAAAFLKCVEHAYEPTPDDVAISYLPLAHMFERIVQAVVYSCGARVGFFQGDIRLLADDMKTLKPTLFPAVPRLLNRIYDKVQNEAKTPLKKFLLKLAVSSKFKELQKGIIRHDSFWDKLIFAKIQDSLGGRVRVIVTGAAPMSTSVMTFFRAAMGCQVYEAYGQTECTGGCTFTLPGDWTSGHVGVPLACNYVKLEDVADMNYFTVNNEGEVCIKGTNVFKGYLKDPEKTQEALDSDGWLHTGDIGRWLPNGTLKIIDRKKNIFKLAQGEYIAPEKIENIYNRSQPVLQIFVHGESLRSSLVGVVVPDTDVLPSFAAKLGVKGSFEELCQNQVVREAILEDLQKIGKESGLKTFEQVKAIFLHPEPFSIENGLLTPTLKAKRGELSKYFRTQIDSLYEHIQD

SMILES	IC50 (hACSL5 [1])	IC50 (hACSL5 [2])
CC[C@@H](Oc1ccc(C(=O)NS(=O)(=O)N2CCN(C)CC2)c(F)c1F)c1ccc(Oc2ccccn2)cn1 [Compound D, (R)-2,3-difluoro-N-((4-methylpiperazin-1-yl)sulfonyl)-4-(1-(5-(pyridin-2-yloxy)pyridin-2-yl)propoxy)benzamide]	< 100 nM	< 100 nM
CC[C@@H](Oc1ccc(C(=O)NS(=O)(=O)c2ccc(OCCN(C)C)cc2)c(F)c1F)c1ccc(OCC2CC2)cn1 [Compound B, (R)-4-(1-(5-(cyclopropylmethoxy)pyridin-2-yl)propoxy)-N-((4-(2-(dimethylamino)ethoxy)phenyl)sulfonyl)-2,3-difluorobenzamide]	< 100 nM	100 to 500 nM
CC[C@@H](Oc1ccc(C(=O)NS(=O)(=O)N2CCC(OCCN(C)C)CC2)c(F)c1F)c1ccc(Oc2ccccn2)cn1 [Compound C, (R)-N-((4-(2-(dimethylamino)ethoxy)piperidin-1-yl)sulfonyl)-2,3-difluoro-4-(1-(5-(pyridin-2-yloxy)pyridin-2-yl)propoxy)benzamide]	< 100 nM	100 to 500 nM
